Measurements: PMC10284550, “Accelerating drug target inhibitor discovery with a deep generative foundation model” (Science Advances, 2023)
Entries after “also recorded” stand apart in the source; their conditions may differ.

Target: SARS-CoV-2 spike glycoprotein ectodomain (Severe acute respiratory syndrome coronavirus 2, UniProt P0DTC2, K986P/R682G/R683S/R685S/V987P)
Assay type: binding
Settings: pH 7.5

In the case of `C#CCN1CCC(CCNc2ccnc3ccccc23)CC1` [GEN727], the “Effect on stability of the spike (thermofluor)” value is reported as “appeared to reduce the speed of the transition of the spike to a less stable form; also recorded: somewhat destabilized the spike”.
